Results from publication PMC12367891, “Structure–metabolism relationships of 4-pentenyl synthetic cannabinoid receptor agonists using in vitro human hepatocyte incubations and high-resolution mass spectrometry” (Archives of Toxicology, 2025).

Tested on: pooled human hepatocytes
Assay: Incubation with pooled human hepatocytes, metabolite identification by LC-QTOF-MS
Type: in vitro ADME
Settings: 5 µM, HHeps, up to 3 h
Procedure: Incubations of the SCRAs with HHeps and subsequent metabolite identification were carried out as previously described in a published procedure, with slight modifications (Åstrand et al. [2019]; Stalberga et al. [2022]). To summarise, 5 µM of each SCRA was incubated with HHeps (100,000 cells) at 37 °C, 5% CO2 in a total volume of 100 μL of Williams E medium supplemented with L-glutamine and HEPES. Incubations were carried out in duplicate and quenched by the addition of 100 µL ice-cold acetonitrile at 0, 0.5, 1 and 3 h, after which the incubates were centrifuged at 1,100 × g for 15 min at 4 °C. The resulting supernatant was analysed by LC–QTOF-MS. On each day, negative controls (HHeps without drug) and degradation controls (drug without HHeps) were also incubated for 3 h.
Chromatographic separation was achieved using an Agilent 1290 Infinity ultra-high performance liquid chromatography (UHPLC) system (Agilent Technologies, Kista, Sweden); 4 µL supernatant was injected onto an Acquity HSS T3 column (150 × 2.1 mm, 1.8 μm) fitted with an Acquity VanGuard precolumn (Waters, Sollentuna, Sweden). Gradient elution was employed using 0.1% formic acid in water (A) and 0.1% formic acid in acetonitrile (B) mobile phases: 1% B (0–0.6 min); 1–20% B (0.6–0.7 min); 20–85% B (0.7–13 min); 85–95% B (13–15 min); 95% B (15–18 min); 95–1% B (18–18.1 min); 1% B (18.1–19 min), with a flow rate of 0.5 mL/min and column temperature of 60 °C. The UHPLC system was coupled to an Agilent 6550 iFunnel QTOF mass spectrometer (Agilent Technologies, Kista, Sweden) with a Dual Agilent Jet Stream electrospray ionisation (ESI) source. […]
To identify structure–metabolism relationships, the total proportion (%) that each type of biotransformation contributed to the summed abundance of metabolites (as measured by peak area) across the 0.5, 1 and 3 h incubations was determined. […]

C=CCCCN1C(=O)/C(=N\NC(=O)c2ccccc2)c2ccccc21 [BZO-4en-POXIZID]
abundances of metabolites relative to the parent compound: small relative to the parent compound

C=CCCCn1nc(C(=O)NC(C(=O)OC)C(C)(C)C)c2ccccc21 (stereo not drawn) [MDMB-4en-PINACA, methyl 3,3-dimethyl-2-{[1-(pent-4-en-1-yl)-1H-indazole-3-carbonyl]amino}butanoate]
most abundant metabolite: ester hydrolysis metabolite

C=CCCCn1cc(C(=O)NC(C(=O)OC)C(C)(C)C)c2ccccc21 (stereo not drawn) [MDMB-4en-PICA]
most abundant metabolite: ester hydrolysis metabolite
